According to publication PMC10666548, “Identification of the bacterial metabolite aerugine as potential trigger of human dopaminergic neurodegeneration” (Environment international, 2023):
Entries after “also recorded” stand apart in the source; their conditions may differ.

Experiments:
[1] = Cytotoxicity to immature (d2) LUHMES cells, calcein-AM & H-33342 imaging; format: cell-based; settings: human, immature LUHMES d2, 24 h exposure, read-out: EC50 (half-maximal cytotoxic potency), cell viability
Experimental: (§1) The assays were performed as described previously ([Hoelting et al., 2016]; [Klima et al., 2021]; [Krug et al., 2013]). In brief, 30′000 cells per well were seeded on d2 (LUHMES) / d0 (peripheral neurons, Cortex.4U, CNS.4U) in their respective differentiation media into standard pre-coated 96-well plates. They were incubated for 1 h at 37 °C and 5% CO2 before treatment. 24 h after treatment the Calcein/Hoechst readout was performed.
Neurite area (NA) and viability (V) were assessed as described previously ([Stiegler et al., 2011]). In brief, cells were stained with 1 μM calcein-AM and 1 μg/ml H-33342 for 30 min at 37 °C and 5% CO2. Image acquisition was performed using an Array-Scan VTI HCS Reader (Cellomics, PA, USA) equipped with a Hamamatsu ORCA-ER camera. 10 fields per well were imaged with 2 channels at 20x magnification (2×2 pixel binning). […]
Nuclei were identified in channel 1 depending on intensity, area, size and shape. […] The NA was automatically calculated by excluding the VCSAs from the VCSs. […]
Fig. 3. […] The cell viability was assessed 24 h later by calcein-AM & H-33342 staining and high content imaging. […] The overall cell viability was assessed by measuring resazurin reduction in technical triplicates. […] The cell viability was assessed 24 h later by calcein-AM & H-33342 staining and high content imaging. […]

[2] = test system: C. elegans strains BY200 and Punc-25; assay: C. elegans lethality analysis (eight day survival test); format: in vivo, Caenorhabditis elegans; settings: L4 larval stage, 8, 40 and 100 μM, up to 8 days
Experimental: The strain BY200 Pdat-1::gfp (vtIs1), dat-1::GFP(vtls1) was kindly provided by the Blakely laboratory, Vanderbilt University Medical Center and the strain Punc-25:GFP was obtained from the Caenorhabditis Genetics Center (CGC, University of Minnesota, Minneapolis, MN, USA). The worms were maintained in nematode growth medium (NGM) plates that contain: 3 g/l NaCl, 17 g/l agar, 2.5 g/l peptone, 1 mM CaCl2, 5 mg/l cholesterol, 1 mM MgSO4, 25 mM potassium phosphate buffer (pH 6.0) with 1.25 ml nystatin and 50 mg/l streptomycin sulfate) and Escherichia coli (E. coli) OP50 strain was used as food ([Brenner, 1974]). Synchronization of worms was carried out using extraction solution (0.2% NaOCl, 0.5 M NaOH, in distilled water). The first larval stage (L1) population were obtained by isolating eggs with a 30% sucrose gradient, washed with sterile water, and resuspended in M9 buffer (42 mM Na2HPO4, 22 mM KH2PO4, 8.5 mM NaCl, and 1 mM MgSO4) ([Sulston and Hodgkin, 1998]).
For the lethality analysis, 40 to 60 BY200 and P unc-25 worms at L4 larval stage were exposed to vehicle or aerugine (8, 40 and 100 μM) in OP50-seeded NGM plates from day 0 until day 8. […] Moreover, worms were transferred to fresh plates for the first three days of treatment, which coincide with the egg laying days to avoid mixing of different generations. […]

[3] = test system: peripheral nervous system cells (iPSC-derived peripheral neurons); assay: iPSC-derived neuron viability, calcein-AM & H-33342 imaging; format: cell-based, human; settings: 24 h, concentrations up to 100 μM
Experimental: The human iPSC (Sigma iPSC0028 (EPITHELIAL-1, #IPSC0028) were maintained and differentiated towards immature dorsal root ganglia neurons according to [Hoelting et al. (2016)] ([Hoelting et al., 2016]). Briefly, a total of 90,000 cells/cm^2 were seeded on Matrigel. The differentiation was initiated with neural differentiation medium (KSR-S; Dulbecco’s modified Eagle’s medium [DMEM/F12] containing 15% knockout serum replacement, 1 × Glutamax, 1 × nonessential amino acids, and 50 μM ß-mercaptoethanol) supplemented with 17.5 ng/ml noggin, 10 μM SB-431642 from day of stem cell differentiation (DoD) DoD0 to DoD5. Starting on DoD2 CHIR99021 (1.5 μM), SU5402 (5 μM) and DAPT (5 μM) were added. […]
The assays were performed as described previously ([Hoelting et al., 2016]; [Klima et al., 2021]; [Krug et al., 2013]). […] 24 h after treatment the Calcein/Hoechst readout was performed.
Neurite area (NA) and viability (V) were assessed as described previously ([Stiegler et al., 2011]). […] Image acquisition was performed using an Array-Scan VTI HCS Reader (Cellomics, PA, USA) equipped with a Hamamatsu ORCA-ER camera. […]

[4] = test system: Cortical neurons (Cortex.4U); assay: as above; format: cell-based, human
Experimental: (§2) Commercial preparation of iPSC-derived neurons (Cortex.4U and CNS.4U) were handled and used as described by the manufacturer (nCardia). In brief, plates were coated with 10 μg/ml PLO, 10 μg/ml laminin and 10 μg/ml fibronectin. Cells were thawed and immediately seeded onto 96-well plates in their respective culture media (Cortex.4U: Cortex.4U™ culture medium with Cortex.4U™ supplement; CNS.4U: Neuro.4U Basal Medium [Ax-M-NBM250] with Neuro-Supplement 2 [Ax-M-DCS-DA]) to be used in neurite outgrowth assays.
as §1
(§3) Neurite area (NA) and viability (V) were assessed as described previously ([Stiegler et al., 2011]). In brief, cells were stained with 1 μM calcein-AM and 1 μg/ml H-33342 for 30 min at 37 °C and 5% CO2. Image acquisition was performed using an Array-Scan VTI HCS Reader (Cellomics, PA, USA) equipped with a Hamamatsu ORCA-ER camera. 10 fields per well were imaged with 2 channels at 20x magnification (2×2 pixel binning). Excitation/emission wavelengths of 365 ± 50/535 ± 45 nm were used for Hoechst detection in channel 1 and 474 ± 40/535 ± 45 nm were used for calcein detection in channel 2.

[5] = test system: Mixed central nervous system neurons (CNS.4U); assay: as above; format: cell-based, human; settings: 24 h, at higher concentrations than LUHMES
Experimental: as §2, §1, §3

## OCC1CSC(c2ccccc2O)=N1 (stereo not drawn) [aerugine, 2-[4-(hydroxymethyl)-4,5-dihydro-1,3-thiazol-2-yl]phenol]
[1]
  EC50 at 24 h: 9.3 ± 1.1 µM
[2]
  general survival of worms: neither triggered death during the first 2 days; also recorded: not affected
[3]
  effect on cell viability: no effect
[4]; 24 h
  effect on cell viability: sensitive to aerugine
[4]; cortical neurons vs mature LUHMES
  fold higher toxic concentration than for DA neurons (mature LUHMES): about 50 x
[5]
  effect on cell viability: clearly affected by aerugine
